The results in this text go back to US20220226337A1 (Gilead Sciences, Inc., priority 2018, published 2022).

Structures are written as SMILES.

Broadly, the EC50 is the midpoint of the concentration-response curve.

This test addresses T1, α4β7 integrin interaction with MadCAM-1 (RPMI8866 cells) (Homo sapiens, UniProt P13612+P26010).
T1 construct: α4β7 integrin expressing cells; endogenous in cells; host or cells: RPMI8866 cells
T1 sequence (P13612 34-1032): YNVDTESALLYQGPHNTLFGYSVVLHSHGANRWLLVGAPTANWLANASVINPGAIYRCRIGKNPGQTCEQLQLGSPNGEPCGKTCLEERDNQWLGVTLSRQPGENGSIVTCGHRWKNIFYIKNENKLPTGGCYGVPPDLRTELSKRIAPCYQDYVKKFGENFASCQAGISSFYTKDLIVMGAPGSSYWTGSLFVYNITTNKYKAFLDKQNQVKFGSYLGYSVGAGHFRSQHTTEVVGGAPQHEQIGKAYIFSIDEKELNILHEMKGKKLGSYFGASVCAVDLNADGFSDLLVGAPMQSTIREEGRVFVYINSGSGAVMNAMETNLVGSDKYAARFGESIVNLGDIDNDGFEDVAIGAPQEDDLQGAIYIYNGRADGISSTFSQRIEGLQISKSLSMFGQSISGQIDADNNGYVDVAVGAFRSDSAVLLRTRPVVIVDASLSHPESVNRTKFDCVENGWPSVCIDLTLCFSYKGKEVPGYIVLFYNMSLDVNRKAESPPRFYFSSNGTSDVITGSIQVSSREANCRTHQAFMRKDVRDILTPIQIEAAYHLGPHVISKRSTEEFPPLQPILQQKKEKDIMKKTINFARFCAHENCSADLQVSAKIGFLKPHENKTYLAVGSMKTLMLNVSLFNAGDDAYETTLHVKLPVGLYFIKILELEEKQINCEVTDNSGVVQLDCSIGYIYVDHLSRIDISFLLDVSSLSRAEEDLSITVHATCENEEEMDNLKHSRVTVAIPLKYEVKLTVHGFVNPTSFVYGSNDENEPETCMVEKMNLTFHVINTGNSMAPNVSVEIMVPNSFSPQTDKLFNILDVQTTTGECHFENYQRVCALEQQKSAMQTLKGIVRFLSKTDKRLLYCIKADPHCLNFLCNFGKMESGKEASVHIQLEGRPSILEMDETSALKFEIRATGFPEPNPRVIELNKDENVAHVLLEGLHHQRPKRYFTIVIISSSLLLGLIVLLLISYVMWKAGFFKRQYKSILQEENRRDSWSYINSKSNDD
T1 sequence (P26010 20-798): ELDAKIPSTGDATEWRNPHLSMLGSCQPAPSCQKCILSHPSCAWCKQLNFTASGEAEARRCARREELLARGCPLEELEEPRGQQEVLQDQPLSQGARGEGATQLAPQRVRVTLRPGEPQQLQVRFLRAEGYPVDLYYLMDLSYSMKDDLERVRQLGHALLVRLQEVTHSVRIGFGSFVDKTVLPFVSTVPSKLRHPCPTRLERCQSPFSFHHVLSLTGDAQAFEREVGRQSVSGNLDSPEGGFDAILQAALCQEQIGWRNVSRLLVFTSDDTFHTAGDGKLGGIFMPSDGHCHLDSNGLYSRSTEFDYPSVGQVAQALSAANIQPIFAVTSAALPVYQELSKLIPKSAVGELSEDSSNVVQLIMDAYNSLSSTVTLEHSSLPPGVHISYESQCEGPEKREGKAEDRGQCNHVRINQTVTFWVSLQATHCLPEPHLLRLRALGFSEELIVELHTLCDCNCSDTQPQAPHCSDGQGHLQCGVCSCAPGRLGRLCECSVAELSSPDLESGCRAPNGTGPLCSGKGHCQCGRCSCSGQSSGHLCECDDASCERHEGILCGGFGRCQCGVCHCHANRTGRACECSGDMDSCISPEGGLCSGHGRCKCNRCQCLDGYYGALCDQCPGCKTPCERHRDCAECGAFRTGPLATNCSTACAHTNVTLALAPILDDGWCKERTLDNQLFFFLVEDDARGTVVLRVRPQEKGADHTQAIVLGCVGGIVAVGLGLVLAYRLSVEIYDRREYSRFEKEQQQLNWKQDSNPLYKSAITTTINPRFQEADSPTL
The experiment in a line: α4β7 Integrin Cell Capture Assay. Format: cell-based. Particulars: capture of α4β7 integrin expressing RPMI8866 cells on recombinant MadCAM-1 extracellular domain-coated plate; 0.5 mM MnCl2. Put shortly: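 RPMI8866 cells (0.5×10^6 cells/mL in DMEM + 0.5% FBS + 0.5 mM MnCl2) preincubated with compound 1 h at 37 °C, then allowed to adhere 30 min at 37 °C to plates coated with MAdCAM-1 extracellular domain (1.0 μg/mL). Bound cells fixed with 2% glutaraldehyde, Hoechst-stained, imaged and counted; EC50 from cell count versus concentration.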
Take `Cc1cc(N2CCOC[C@@H]2C(F)(F)F)cc(F)c1C(=O)N[C@@H](Cc1ccc(-c2nc(C)c(C)n(C)c2=O)c2c1CCC2)C(=O)O` [Example 199]: the EC50 amounted to 0.19 nM.
The value for `CCc1nc(-c2ccc(C[C@H](NC(=O)c3c(F)cccc3F)C(=O)O)c3c2OCCO3)c(C(F)(F)F)c2ccccc12` [Example 3] was 6.49 nM.
The value for `Cc1cc(N2CCOC[C@@H]2C(F)(F)F)cc(F)c1C(=O)N[C@@H](Cc1ccc(-c2cc(Cl)c(C)n(C)c2=O)c2c1CCCO2)C(=O)O` [Example 142] was 0.25 nM.
In the case of `CC[C@@H](Nc1cc(F)c(C(=O)N[C@@H](Cc2ccc(-c3c(OC)cc(C)n(C)c3=O)c3c2CCCO3)C(=O)O)c(F)c1)C(F)(F)F` [Example 47, (S)-2-(2,6-difluoro-4-(((R)-1,1,1-trifluorobutan-2-yl)amino)benzamido)-3-(8-(4-methoxy-1,6-dimethyl-2-oxo-1,2-dihydropyridin-3-yl)chroman-5-yl)propanoic acid], the EC50 turned out to be 0.58 nM.
In the case of `CCOCc1cc(OC)c(-c2ccc(C[C@H](NC(=O)c3c(F)cccc3F)C(=O)O)c3c2CCCO3)c(OC)c1` [Example 99, (S)-2-(2,6-difluorobenzamido)-3-(5-(4-(ethoxymethyl)-2,6-dimethoxyphenyl)chroman-8-yl)propanoic acid], the EC50 was found to be 9.33 nM.
The value for `C[C@@H](Nc1cc(F)c(C(=O)N[C@@H](Cc2ccc(-c3c(Cl)cc(F)cc3Cl)c3c2CCCO3)C(=O)O)c(F)c1)C(F)(F)F` [Example 50, (S)-3-(8-(2,6-dichloro-4-fluorophenyl)chroman-5-yl)-2-(2,6-difluoro-4-(((R)-1,1,1-trifluoropropan-2-yl)amino)benzamido)propanoic acid] was 43.4 nM; that for `CC[C@@H](Nc1cc(F)c(C(=O)N[C@@H](Cc2ccc(-c3c(C)n(C)c(=O)n(C)c3=O)c3c2CCCO3)C(=O)O)c(F)c1)C(F)(F)F` [Example 54, (S)-2-(2,6-difluoro-4-(((R)-1,1,1-trifluorobutan-2-yl)amino)benzamido)-3-(8-(1,3,6-trimethyl-2,4-dioxo-1,2,3,4-tetrahydropyrimidin-5-yl)chroman-5-yl)propanoic acid] was 0.607 nM; that for `Cc1nc(-c2ccc(C[C@H](NC(=O)c3c(F)cc(N4CCCC[C@@H]4C(F)(F)F)cc3F)C(=O)O)c3c2OCCC3)c(=O)n(C)c1C` [Example 156] was 0.84 nM.
The value for `CC[C@@H](Nc1cc(F)c(C(=O)N[C@@H](Cc2ccc(-c3c(C)n(C)c(=O)n(C)c3=O)c3c2CCCO3)C(=O)O)c(F)c1)C(F)(F)F` (single isomer, unassigned) [Example 56] was 0.961 nM.
For `Cc1cc(N2CCOC3(CC3)C2)cc(F)c1C(=O)N[C@@H](Cc1ccc(-c2nc(C)c(C)n(C)c2=O)c2c1CCCO2)C(=O)O` [Example 139], the EC50 came to 2 nM.
In the case of `COc1cc(C)n(C)c(=O)c1-c1ccc(C[C@H](NC(=O)c2c(F)cc(N[C@H](C)C(F)(F)F)cc2F)C(=O)O)c2c1OCCC2` [Example 48, (S)-2-(2,6-difluoro-4-(((R)-1,1,1-trifluoropropan-2-yl)amino)benzamido)-3-(8-(4-methoxy-1,6-dimethyl-2-oxo-1,2-dihydropyridin-3-yl)chroman-5-yl)propanoic acid], the EC50 stood at 1.23 nM.
The value for `COc1cc(C)n(C)c(=O)c1-c1ccc(C[C@H](NC(=O)c2c(C)cc(N3CCOC[C@@H]3C(F)(F)F)cc2F)C(=O)O)c2c1OCCC2` [Example 166] was 0.195 nM; that for `CC[C@@H](Nc1cc(F)c(C(=O)N[C@@H](Cc2ccc(-c3c(C(F)(F)F)cc(C)n(C)c3=O)c3c2CCCO3)C(=O)O)c(F)c1)C(F)(F)F` (single isomer, unassigned) [Example 45] was 0.964 nM; that for `Cc1cc(N2CCOC[C@@H]2C(F)(F)F)cc(F)c1C(=O)N[C@@H](Cc1ccc(-c2cnc(C)n(C)c2=O)c2c1OCCO2)C(=O)O` [Example 178] was 0.348 nM.
The value for `CS(=O)(=O)Nc1cc(F)c(C(=O)N[C@@H](Cc2ccc(-c3c(Cl)cc(F)cc3Cl)c3c2CCCO3)C(=O)O)c(F)c1` [Example 92, (S)-3-(8-(2,6-dichloro-4-fluorophenyl)chroman-5-yl)-2-(2,6-difluoro-4-(methylsulfonamido)benzamido)propanoic acid] was 9.19 nM; that for `C=C1COCCN(c2cc(F)c(C(=O)N[C@@H](Cc3ccc(-c4nc(C)c(C)n(C)c4=O)c4c3CCCO4)C(=O)O)c(F)c2)C1` [Example 158] was 0.502 nM.
The value for `Cc1cc(N2CCOC[C@@H]2C(F)(F)F)cc(F)c1C(=O)N[C@@H](Cc1ccc(-c2c(C)nc(C)n(C)c2=O)c2c1COC2)C(=O)O` [Example 183] was 0.106 nM; that for `Cc1cc(N2CCOC[C@@H]2C(F)(F)F)cc(F)c1C(=O)N[C@@H](Cc1ccc(-c2c(C(F)(F)F)cc(C)n(C)c2=O)c2c1CCC2)C(=O)O` [Example 200] was 0.083 nM.
For `Cc1c(-c2ccc(C[C@H](NC(=O)c3c(F)cc(N4CCOC[C@@H]4C(F)(F)F)cc3F)C(=O)O)c3c2OCCC3)c(=O)n(C)c2ccc(F)cc12` [Example 34, (S)-2-(2,6-difluoro-4-((R)-3-(trifluoromethyl)morpholino)benzamido)-3-(8-(6-fluoro-1,4-dimethyl-2-oxo-1,2-dihydroquinolin-3-yl)chroman-5-yl)propanoic acid], the EC50 was found to be 0.236 nM.
The value for `Cc1c(-c2ccc(C[C@H](NC(=O)c3c(F)cccc3F)C(=O)O)c3c2COC3)c(=O)n(C)c(=O)n1C` [Example 18, (S)-2-(2,6-difluorobenzamido)-3-(7-(1,3,6-trimethyl-2,4-dioxo-1,2,3,4-tetrahydropyrimidin-5-yl)-1,3-dihydroisobenzofuran-4-yl)propanoic acid] was 5.22 nM.
The value for `Cc1c(-c2ccc(C[C@H](NC(=O)c3c(Cl)cccc3Cl)C(=O)O)c3c2OCCC3)c(=O)n(C)c2ccccc12` [Example 60, (S)-2-(2,6-dichlorobenzamido)-3-(8-(1,4-dimethyl-2-oxo-1,2-dihydroquinolin-3-yl)chroman-5-yl)propanoic acid] was 4.12 nM; that for `Cc1cc(C)n(C)c(=O)c1-c1ccc(C[C@H](NC(=O)c2c(F)cc(N[C@H](C)C(F)(F)F)cc2F)C(=O)O)c2c1COC2` [Example 30, (S)-2-(2,6-difluoro-4-(((R)-1,1,1-trifluoropropan-2-yl)amino)benzamido)-3-(7-(1,4,6-trimethyl-2-oxo-1,2-dihydropyridin-3-yl)-1,3-dihydroisobenzofuran-4-yl)propanoic acid] was 1.74 nM; that for `O=C(N[C@@H](Cc1ccc(-c2c(Cl)cc(F)cc2Cl)c2c1[C@H]1C[C@H]1CO2)C(=O)O)c1c(Cl)cccc1Cl` (single isomer, unassigned) [Example 81] was 109 nM.
The value for `Cc1cc(C(F)(F)F)c(-c2ccc(C[C@H](NC(=O)c3c(F)cc(N4CCOC[C@@H]4C(F)(F)F)cc3F)C(=O)O)c3c2CCN(C)C3)c(=O)n1C` [Example 203] was 0.36 nM; that for `Cc1cc(N2CCOC[C@@H]2C(F)(F)F)cc(F)c1C(=O)N[C@@H](Cc1ccc(-c2c(C)nc(C)n(C)c2=O)c2c1CCCO2)C(=O)O` [Example 129] was 0.189 nM.
